Experiments:
Assay in all cases: relative viability (nuclei count vs DMSO), 5 days (fraction); higher = more cells survive
Ruxolitinib + Alpelisib = compound: N#CC[C@H](C1CCCC1)n1cc(-c2ncnc3[nH]ccc23)cn1 [Ruxolitinib] + Cc1nc(NC(=O)N2CCC[C@H]2C(N)=O)sc1-c1ccnc(C(C)(C)C(F)(F)F)c1 [Alpelisib] (partner 2 µM)
Procedure, shortened: (§1)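 Cells from lung cancer lines were seeded into 1536-well plates and, one day later, dosed by pin tool. Treatments were either a single drug or a fixed dose of an anchor drug with five library-drug doses (not always all listed) in √10 steps. After 5 days, nuclei were stained in a one-step fixation (final 0.05% Triton X-100, 1% formaldehyde, 1 ug/ml Hoechst) and counted on 4× images, and relative viability is the treated-to-vehicle nuclei ratio, as the median of duplicate plates.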

VE-821 + Pemetrexed = compound: CS(=O)(=O)c1ccc(-c2cnc(N)c(C(=O)Nc3ccccc3)n2)cc1 [VE-821] + Nc1nc2[nH]cc(CCc3ccc(C(=O)N[C@@H](CCC(=O)O)C(=O)O)cc3)c2c(=O)[nH]1 [Pemetrexed] (partner 0.2 µM)
Procedure, shortened: as §1

Ruxolitinib + Decitabine = compound: N#CC[C@H](C1CCCC1)n1cc(-c2ncnc3[nH]ccc23)cn1 [Ruxolitinib] + Nc1ncn([C@H]2C[C@H](O)[C@@H](CO)O2)c(=O)n1 [Decitabine] (partner 2 µM)
Procedure, shortened: as §1

VE-821 + Trametinib = compound: CS(=O)(=O)c1ccc(-c2cnc(N)c(C(=O)Nc3ccccc3)n2)cc1 [VE-821] + CC(=O)Nc1cccc(-n2c(=O)n(C3CC3)c(=O)c3c(Nc4ccc(I)cc4F)n(C)c(=O)c(C)c32)c1 [Trametinib] (partner 0.02 µM)
Procedure, shortened: as §1

PC-3 [JPC-3]
relative viability (Ruxolitinib + Alpelisib; first compound 0.08 µM): 0.763
relative viability (Ruxolitinib + Alpelisib; first compound 0.253 µM): 1.05
relative viability (Ruxolitinib + Alpelisib; first compound 0.8 µM): 1.1
relative viability (Ruxolitinib + Alpelisib; first compound 2.53 µM): 0.991
relative viability (Ruxolitinib + Alpelisib; first compound 8 µM): 0.932
relative viability (VE-821 + Pemetrexed; first compound 0.08 µM): 1.25
relative viability (VE-821 + Pemetrexed; first compound 0.253 µM): 1.03
relative viability (VE-821 + Pemetrexed; first compound 0.8 µM): 1.18
relative viability (VE-821 + Pemetrexed; first compound 2.53 µM): 1.13
relative viability (VE-821 + Pemetrexed; first compound 8 µM): 0.848
relative viability (Ruxolitinib + Decitabine; first compound 0.253 µM): 0.856
relative viability (Ruxolitinib + Decitabine; first compound 0.8 µM): 0.899
relative viability (Ruxolitinib + Decitabine; first compound 2.53 µM): 0.754
relative viability (Ruxolitinib + Decitabine; first compound 8 µM): 0.718
relative viability (VE-821 + Trametinib; first compound 0.08 µM): 0.727
relative viability (VE-821 + Trametinib; first compound 0.253 µM): 0.744
relative viability (VE-821 + Trametinib; first compound 0.8 µM): 0.701
relative viability (VE-821 + Trametinib; first compound 2.53 µM): 0.826
relative viability (VE-821 + Trametinib; first compound 8 µM): 0.763

NCI-H2009
relative viability (Ruxolitinib + Alpelisib; first compound 0.08 µM): 1.11
relative viability (Ruxolitinib + Alpelisib; first compound 0.253 µM): 1.17
relative viability (Ruxolitinib + Alpelisib; first compound 0.8 µM): 1.12
relative viability (Ruxolitinib + Alpelisib; first compound 2.53 µM): 1.01
relative viability (Ruxolitinib + Alpelisib; first compound 8 µM): 0.903
relative viability (VE-821 + Pemetrexed; first compound 0.08 µM): 1.03
relative viability (VE-821 + Pemetrexed; first compound 0.253 µM): 1
relative viability (VE-821 + Pemetrexed; first compound 0.8 µM): 1.02
relative viability (VE-821 + Pemetrexed; first compound 2.53 µM): 0.851
relative viability (VE-821 + Pemetrexed; first compound 8 µM): 0.732
relative viability (Ruxolitinib + Decitabine; first compound 0.08 µM): 0.361
relative viability (Ruxolitinib + Decitabine; first compound 0.253 µM): 0.375
relative viability (Ruxolitinib + Decitabine; first compound 0.8 µM): 0.364
relative viability (Ruxolitinib + Decitabine; first compound 2.53 µM): 0.369
relative viability (Ruxolitinib + Decitabine; first compound 8 µM): 0.317
relative viability (VE-821 + Trametinib; first compound 0.08 µM): 0.266
relative viability (VE-821 + Trametinib; first compound 0.253 µM): 0.287
relative viability (VE-821 + Trametinib; first compound 0.8 µM): 0.254
relative viability (VE-821 + Trametinib; first compound 2.53 µM): 0.263
relative viability (VE-821 + Trametinib; first compound 8 µM): 0.174

LK-2
relative viability (Ruxolitinib + Alpelisib; first compound 0.253 µM): 0.992
relative viability (Ruxolitinib + Alpelisib; first compound 0.8 µM): 1.27
relative viability (Ruxolitinib + Alpelisib; first compound 2.53 µM): 0.971
relative viability (Ruxolitinib + Alpelisib; first compound 8 µM): 1.43
relative viability (VE-821 + Pemetrexed; first compound 0.08 µM): 0.357
relative viability (VE-821 + Pemetrexed; first compound 0.253 µM): 0.295
relative viability (VE-821 + Pemetrexed; first compound 0.8 µM): 0.299
relative viability (VE-821 + Pemetrexed; first compound 2.53 µM): 0.267
relative viability (VE-821 + Pemetrexed; first compound 8 µM): 0.262
relative viability (Ruxolitinib + Decitabine; first compound 0.08 µM): 0.228
relative viability (Ruxolitinib + Decitabine; first compound 0.253 µM): 0.237
relative viability (Ruxolitinib + Decitabine; first compound 0.8 µM): 0.35
relative viability (Ruxolitinib + Decitabine; first compound 2.53 µM): 0.308
relative viability (Ruxolitinib + Decitabine; first compound 8 µM): 0.273
relative viability (VE-821 + Trametinib; first compound 0.08 µM): 1.02
relative viability (VE-821 + Trametinib; first compound 0.253 µM): 0.775
relative viability (VE-821 + Trametinib; first compound 0.8 µM): 0.734
relative viability (VE-821 + Trametinib; first compound 2.53 µM): 0.897
relative viability (VE-821 + Trametinib; first compound 8 µM): 0.818

NCI-H1993
relative viability (Ruxolitinib + Alpelisib; first compound 0.08 µM): 0.705
relative viability (Ruxolitinib + Alpelisib; first compound 0.253 µM): 0.71
relative viability (Ruxolitinib + Alpelisib; first compound 0.8 µM): 0.678
relative viability (Ruxolitinib + Alpelisib; first compound 2.53 µM): 0.722
relative viability (Ruxolitinib + Alpelisib; first compound 8 µM): 0.675
relative viability (VE-821 + Pemetrexed; first compound 0.08 µM): 0.6
relative viability (VE-821 + Pemetrexed; first compound 0.253 µM): 0.596
relative viability (VE-821 + Pemetrexed; first compound 0.8 µM): 0.35
relative viability (VE-821 + Pemetrexed; first compound 2.53 µM): 0.638
relative viability (VE-821 + Pemetrexed; first compound 8 µM): 0.601
relative viability (Ruxolitinib + Decitabine; first compound 0.08 µM): 0.582
relative viability (Ruxolitinib + Decitabine; first compound 0.253 µM): 0.53
relative viability (Ruxolitinib + Decitabine; first compound 0.8 µM): 0.595
relative viability (Ruxolitinib + Decitabine; first compound 2.53 µM): 0.534
relative viability (Ruxolitinib + Decitabine; first compound 8 µM): 0.59
relative viability (VE-821 + Trametinib; first compound 0.08 µM): 0.534
relative viability (VE-821 + Trametinib; first compound 0.253 µM): 0.604
relative viability (VE-821 + Trametinib; first compound 0.8 µM): 0.61
relative viability (VE-821 + Trametinib; first compound 2.53 µM): 0.505
relative viability (VE-821 + Trametinib; first compound 8 µM): 0.502

HCC-15
relative viability (Ruxolitinib + Alpelisib; first compound 0.08 µM): 0.844
relative viability (Ruxolitinib + Alpelisib; first compound 0.253 µM): 0.875
relative viability (Ruxolitinib + Alpelisib; first compound 0.8 µM): 0.923
relative viability (Ruxolitinib + Alpelisib; first compound 2.53 µM): 0.812
relative viability (Ruxolitinib + Alpelisib; first compound 8 µM): 0.73
relative viability (VE-821 + Pemetrexed; first compound 0.08 µM): 0.219
relative viability (VE-821 + Pemetrexed; first compound 0.253 µM): 0.23
relative viability (VE-821 + Pemetrexed; first compound 0.8 µM): 0.21
relative viability (VE-821 + Pemetrexed; first compound 2.53 µM): 0.211
relative viability (VE-821 + Pemetrexed; first compound 8 µM): 0.179
relative viability (Ruxolitinib + Decitabine; first compound 0.08 µM): 0.677
relative viability (Ruxolitinib + Decitabine; first compound 0.253 µM): 0.553
relative viability (Ruxolitinib + Decitabine; first compound 0.8 µM): 0.7
relative viability (Ruxolitinib + Decitabine; first compound 2.53 µM): 0.55
relative viability (Ruxolitinib + Decitabine; first compound 8 µM): 0.48
relative viability (VE-821 + Trametinib; first compound 0.08 µM): 0.354
relative viability (VE-821 + Trametinib; first compound 0.253 µM): 0.334
relative viability (VE-821 + Trametinib; first compound 0.8 µM): 0.39
relative viability (VE-821 + Trametinib; first compound 2.53 µM): 0.499
relative viability (VE-821 + Trametinib; first compound 8 µM): 0.487

NCI-H322M
relative viability (Ruxolitinib + Alpelisib; first compound 0.08 µM): 0.901
relative viability (Ruxolitinib + Alpelisib; first compound 0.253 µM): 0.844
relative viability (Ruxolitinib + Alpelisib; first compound 0.8 µM): 0.873
relative viability (Ruxolitinib + Alpelisib; first compound 2.53 µM): 0.802
relative viability (Ruxolitinib + Alpelisib; first compound 8 µM): 1.01
relative viability (VE-821 + Pemetrexed; first compound 0.08 µM): 0.616
relative viability (VE-821 + Pemetrexed; first compound 0.253 µM): 0.639
relative viability (VE-821 + Pemetrexed; first compound 0.8 µM): 0.542
relative viability (VE-821 + Pemetrexed; first compound 2.53 µM): 0.532
relative viability (VE-821 + Pemetrexed; first compound 8 µM): 0.385
relative viability (Ruxolitinib + Decitabine; first compound 0.08 µM): 0.718
relative viability (Ruxolitinib + Decitabine; first compound 0.253 µM): 0.702
relative viability (Ruxolitinib + Decitabine; first compound 0.8 µM): 0.744
relative viability (Ruxolitinib + Decitabine; first compound 2.53 µM): 0.693
relative viability (Ruxolitinib + Decitabine; first compound 8 µM): 0.889
relative viability (VE-821 + Trametinib; first compound 0.08 µM): 0.604
relative viability (VE-821 + Trametinib; first compound 0.253 µM): 0.565
relative viability (VE-821 + Trametinib; first compound 0.8 µM): 0.572
relative viability (VE-821 + Trametinib; first compound 2.53 µM): 0.493
relative viability (VE-821 + Trametinib; first compound 8 µM): 0.472
